Experimental data from US4160829A, “Antibacterial 1,2,4-oxadiazolylacetamido cephalosporins” (Gist-Brocades N.V., priority 1972, dated 1979).
Converted amounts (≈) assume the structure as drawn. Read-outs that look alike come from different tables or passages of the source.

How the values were obtained:
[1] = system: Bac.Subt.ATCC 6633; experiment: agar serial dilution test; assay type: cell-based, Bacillus subtilis; details: Bacillus subtilis, read-out: minimal inhibitory concentration (MIC)
[2] = system: Staph.aureus A 321; experiment: agar serial dilution test; assay type: cell-based, Staphylococcus aureus; details: Staphylococcus aureus, read-out: minimal inhibitory concentration (MIC)
[3] = system: Staph.aureus A 2000; experiment: agar serial dilution test; assay type: cell-based, Staphylococcus aureus; details: Staphylococcus aureus, read-out: minimal inhibitory concentration (MIC)
[4] = system: Strep.haem. A 266; experiment: agar serial dilution test; assay type: cell-based, Streptococcus haemolyticus; details: Streptococcus, read-out: minimal inhibitory concentration (MIC)
[5] = system: Strep. faec. L 80; experiment: agar serial dilution test; assay type: cell-based, Streptococcus faecalis; details: Enterococcus faecalis, read-out: minimal inhibitory concentration (MIC)
[6] = system: Dipl.pneum. L 54; experiment: agar serial dilution test; assay type: cell-based, Diplococcus pneumoniae; details: Streptococcus pneumoniae, read-out: minimal inhibitory concentration (MIC)
[7] = system: Bruc.melit. A 488; experiment: microbe, parasite or virus in culture; assay type: cell-based; details: Brucella melitensis, 24 h, read-out: minimal inhibitory concentration (MIC)
[8] = system: Past.multo. A 723; experiment: agar serial dilution test; assay type: cell-based, Pasteurella multocida; details: Pasteurella multocida, read-out: minimal inhibitory concentration (MIC)
[9] = system: Kleb.pneum. A 809; experiment: agar serial dilution test; assay type: cell-based, Klebsiella pneumoniae; details: Klebsiella pneumoniae, read-out: minimal inhibitory concentration (MIC)
[10] = system: Salm.dubl. P 43; experiment: agar serial dilution test; assay type: cell-based, Salmonella dublin; details: Salmonella enterica, read-out: minimal inhibitory concentration (MIC)
[11] = system: Esch.coli U 20; experiment: agar serial dilution test; assay type: cell-based, Escherichia coli; details: Escherichia coli
[12] = system: Shig.equir. T 3; experiment: agar serial dilution test; assay type: cell-based; details: 37° C., read-out: minimal inhibitory concentration (MIC)
[13] = system: Pseud.aerug. H 10; experiment: agar serial dilution test; assay type: cell-based; details: read-out: minimal inhibitory concentration (MIC)
[14] = system: Pseud.aerug. 2396; experiment: agar serial dilution test; assay type: cell-based; details: read-out: minimal inhibitory concentration (MIC)
[15] = system: Pseud.aerug. Wyeth A 1058; experiment: agar serial dilution test; assay type: cell-based; details: read-out: minimal inhibitory concentration (MIC)
[16] = system: Prot.rettg. A 821; experiment: agar serial dilution test; assay type: cell-based, Proteus rettgeri; details: Providencia rettgeri, read-out: minimal inhibitory concentration (MIC)
[17] = system: Prot.mirab. H 3; experiment: agar serial dilution test; assay type: cell-based, Proteus mirabilis; details: Proteus mirabilis
[18] = system: Prot.mirab. L 93; experiment: agar serial dilution test; assay type: cell-based, Proteus mirabilis; details: Proteus mirabilis
[19] = system: Prot.morg. 2241; experiment: agar serial dilution test; assay type: cell-based; details: read-out: minimal inhibitory concentration (MIC)
[20] = system: Staph.aureus A 355; experiment: micro serial dilution test; assay type: cell-based, Staphylococcus aureus; details: Staphylococcus aureus, A355; micro serial dilution (in brackets), about 18 hours, 30° C. or 37° C.; penicillinase-producing strain; read-out: minimal inhibitory concentration (MIC)
Excerpt: Two drops of a stock solution of the test compound (antibiotic) in a known concentration were brought into the first hole of a test plate with 9 numbered holes with a sterile Pasteur pipette. After rinsing this pipette three times with a physiological NaCl-solution, two drops of a stock solution of the test organism in a culture medium were brought in all the holes except for hole 8. In the first hole, the solution of the tested compound had been half diluted, then by stirring the liquid in the first hole and adding two drops of this mixture to the second hole and so on until hole 8, dilutions of the test compound solution were obtained in geometrical progression. The hole 9 contained no antibiotic and served for checking the growth of the testogranism in a blank medium. The test plate was incubated at 30° C. or 37° C. for about 18 hours.
^1 Penicillinase-producing strain

[21] = system: Staph.aureus A 2001; experiment: micro serial dilution test; assay type: cell-based, Staphylococcus aureus; details: Staphylococcus aureus, micro serial dilution (in brackets), about 18 hours, 30° C. or 37° C., read-out: minimal inhibitory concentration (MIC)
[22] = system: Haem.infl. A 1030; experiment: micro serial dilution test; assay type: cell-based; details: read-out: minimal inhibitory concentration (MIC)
[23] = system: Staph.aureus A 355; experiment: agar serial dilution test; details: Staphylococcus aureus, A355, 24 h
[24] = system: Prot.mirab. A 1200; experiment: agar serial dilution test; assay type: cell-based, Proteus mirabilis; details: Proteus mirabilis, 24 h, agar serial dilution, 24 hours, 37° C.; read-out: minimal inhibitory concentration (MIC)
[25] = system: Staph.aureus A 2001; experiment: agar serial dilution test; assay type: cell-based, Staphylococcus aureus; details: Staphylococcus aureus, A2001, 24 h, agar serial dilution, 24 hours, 37° C.; read-out: minimal inhibitory concentration (MIC)
[26] = system: Salm.typh. R 127; experiment: agar serial dilution test; assay type: cell-based; details: 24 h, 37° C., read-out: minimal inhibitory concentration (MIC)
[27] = system: Staph.aureus A 2000; experiment: micro serial dilution test; assay type: cell-based, Staphylococcus aureus; details: Staphylococcus aureus, A2000, 18 h, micro serial dilution (in brackets), about 18 hours, 30° C. or 37° C.; read-out: minimal inhibitory concentration (MIC)
[28] = agar serial dilution, 24 hours, 37° C.
[29] = 24 h, agar serial dilution, 24 hours, 37° C., read-out: minimal inhibitory concentration (MIC)
[30] = read-out: minimal inhibitory concentration (MIC)
[31] = ATCC6633, 24 h, agar serial dilution, 24 hours, 37° C.
[32] = A321, 24 h, agar serial dilution, 24 hours, 37° C.
[33] = A2000, 24 h, agar serial dilution, 24 hours, 37° C.
[34] = U20, agar serial dilution, 24 hours, 37° C., read-out: minimal inhibitory concentration (MIC)
[35] = 24 h, agar serial dilution, 24 hours, 37° C.
[36] = agar serial dilution, 24 hours, 37° C., read-out: minimal inhibitory concentration (MIC)
[37] = 18 h, micro serial dilution (in brackets), about 18 hours, 30° C. or 37° C.
[38] = read-out: minimal inhibitory concentration (MIC), agar serial dilution, 24 hours, 37° C., penicillinase-producing strain
[39] = 24 h, read-out: minimal inhibitory concentration (MIC), agar serial dilution, 24 hours, 37° C.

Compound | MIC [4, 28] | MIC [5, 28] | MIC [6, 28] | MIC [7] | MIC [8, 28] | MIC [9, 28] | MIC [10, 28] | MIC ([12]; 24 h) | MIC [13, 28] | MIC [14, 28] | MIC [15, 28] | MIC [20] | MIC [23, 30] | MIC [1, 31] | MIC [2, 32] | MIC [3, 33] | MIC [11, 34] | MIC [16, 35] | MIC [17, 36] | MIC [18, 36] | further results
CC(=O)OCC1=C(C(=O)O)N2C(=O)[C@@H](NC(=O)Cc3ccccc3)[C@H]2SC1 [Cephalosporin G, reference compound] | 0.03 µg/mL (≈ 0.0768 µM) | 25 µg/mL (≈ 64 µM) | 0.06 µg/mL (≈ 0.154 µM) | 2 µg/mL (≈ 5.12 µM) | 1 µg/mL (≈ 2.56 µM) | 1 µg/mL (≈ 2.56 µM) | 6 µg/mL (≈ 15.4 µM) | 25 µg/mL (≈ 64 µM) | > 100 µg/mL | > 100 µg/mL | > 100 µg/mL | 1.8 µg/mL (≈ 4.61 µM) | 1.5 µg/mL (≈ 3.84 µM) |  |  |  |  |  |  |  | MIC ([1]; ATCC6633, agar serial dilution, 24 hours, 37° C.): 0.09 µg/mL (≈ 0.231 µM); MIC ([2]; A321, agar serial dilution, 24 hours, 37° C.): 1.5 µg/mL (≈ 3.84 µM); MIC ([3]; A2000, agar serial dilution, 24 hours, 37° C.): 1.5 µg/mL (≈ 3.84 µM); MIC ([11]; U20, 24 h, agar serial dilution, 24 hours, 37° C., read-out: minimal inhibitory concentration (MIC)): 50 µg/mL (≈ 128 µM); MIC [16, 28]: 25 µg/mL (≈ 64 µM); MIC [17, 29]: 25 µg/mL (≈ 64 µM); MIC [18, 29]: 2 µg/mL (≈ 5.12 µM); MIC [19, 28]: > 100 µg/mL; MIC ([21]; A2001): 0.9 µg/mL (≈ 2.31 µM); MIC ([22]; micro serial dilution (in brackets), about 18 hours, 30° C. or 37° C.): 125 µg/mL (≈ 320 µM)
CC(=O)OCC1=C(C(=O)O)N2C(=O)[C@@H](NC(=O)Cc3nc(-c4c(C)cc(C)cc4C)no3)[C@H]2SC1 [Example 9, 7-{[3-(2,4,6-trimethylphenyl)-1,2,4-oxadiazol-5-yl]-acetamido}-cephalosporanic acid] | 0.03 µg/mL (≈ 0.0599 µM) | 6 µg/mL (≈ 12 µM) | 0.25 µg/mL (≈ 0.499 µM) | 100 µg/mL (≈ 200 µM) | 50 µg/mL (≈ 99.9 µM) | 50 µg/mL (≈ 99.9 µM) | > 100 µg/mL | > 100 µg/mL | > 100 µg/mL | > 100 µg/mL | > 100 µg/mL | 0.15 µg/mL (≈ 0.3 µM) |  | 0.06 µg/mL (≈ 0.12 µM) | 0.12 µg/mL (≈ 0.24 µM) | 1 µg/mL (≈ 2 µM) | > 100 µg/mL | > 100 µg/mL | > 100 µg/mL | > 100 µg/mL | MIC [24]: > 100 µg/mL; MIC [19, 35]: > 100 µg/mL; MIC ([21]; A2001, 18 h): 0.11 µg/mL (≈ 0.22 µM); MIC [22, 37]: 125 µg/mL (≈ 250 µM); MIC [23, 38]: 1 µg/mL (≈ 2 µM)
Cc1noc(CC(=O)N[C@@H]2C(=O)N3[C@@H]2SC(C)(C)[C@@H]3C(=O)O)n1 [Example 11B, sodium 6-[(3-methyl-1,2,4-oxadiazol-5-yl)-acetamido]-penicillanate H2 O] | 0.03 µg/mL | 6 µg/mL | 0.25 µg/mL |  | 1 µg/mL | > 100 µg/mL |  | 3 µg/mL | > 100 µg/mL | > 100 µg/mL | > 100 µg/mL | > 12 µg/mL |  | 0.03 µg/mL | 0.12 µg/mL | 50 µg/mL | 50 µg/mL | 50 µg/mL | 50 µg/mL | 3 µg/mL | MIC [25]: 3 µg/mL; MIC ([10]; 24 h): 12.5 µg/mL; MIC [26]: 12.5 µg/mL; MIC [24]: > 100 µg/mL; MIC [19, 35]: > 100 µg/mL; MIC [27]: > 12 µg/mL; MIC ([21]; A2001, 18 h): 2.5 µg/mL; MIC [22, 37]: 125 µg/mL; MIC [23, 38]: 50 µg/mL
CC1=C(C(=O)O)N2C(=O)[C@@H](NC(=O)Cc3ccccc3)[C@H]2SC1 [benzyldesacetoxy ceph., reference compound] |  |  |  | 100 µg/mL (≈ 301 µM) |  |  |  |  |  |  |  |  | 25 µg/mL (≈ 75.2 µM) |  |  |  |  |  |  |  | MIC ([1]; ATCC6633, 24 h): 0.5 µg/mL (≈ 1.5 µM); MIC ([2]; A321, 24 h): 1 µg/mL (≈ 3.01 µM); MIC ([3]; A2000, 24 h): 12.5 µg/mL (≈ 37.6 µM); MIC ([4]; 24 h): 1 µg/mL (≈ 3.01 µM); MIC ([5]; 24 h): > 100 µg/mL; MIC ([6]; 24 h): 3 µg/mL (≈ 9.03 µM); MIC ([8]; 24 h): 25 µg/mL (≈ 75.2 µM); MIC ([9]; 24 h): 100 µg/mL (≈ 301 µM); MIC ([10]; 24 h): > 100 µg/mL; MIC ([11]; U20, 24 h, read-out: minimal inhibitory concentration (MIC), agar serial dilution, 24 hours, 37° C.): > 100 µg/mL; MIC ([12]; 24 hours): 100 µg/mL (≈ 301 µM); MIC ([13]; 24 h): > 100 µg/mL; MIC ([14]; 24 h): > 100 µg/mL; MIC ([15]; 24 h): > 100 µg/mL; MIC ([16]; 24 h): > 100 µg/mL; MIC [17, 39]: > 100 µg/mL; MIC [18, 39]: 50 µg/mL (≈ 150 µM); MIC ([19]; 24 h): > 100 µg/mL; MIC ([22]; 18 h): > 125 µg/mL
